According to patent US8058475B2, “Substituted cyclohexylmethyl compounds” (Gruenenthal GmbH, priority 2005, dated 2011):
Read-outs that look alike come from different tables or passages of the source.

Target: human μ-opiate receptor (Homo sapiens, UniProt P35372)
Test: Affinity for the human μ-opiate receptor ([3H]-naloxone displacement, SPA, CHO-K1 membrane preparation)
Type: binding
Settings: for inhibition at 1 µM: read-out: μ-Opioid receptor, % inhibition [1 μM]; for Ki: read-out: μ-Opioid receptor, Ki

Chain of human μ-opiate receptor (P35372 whole entry): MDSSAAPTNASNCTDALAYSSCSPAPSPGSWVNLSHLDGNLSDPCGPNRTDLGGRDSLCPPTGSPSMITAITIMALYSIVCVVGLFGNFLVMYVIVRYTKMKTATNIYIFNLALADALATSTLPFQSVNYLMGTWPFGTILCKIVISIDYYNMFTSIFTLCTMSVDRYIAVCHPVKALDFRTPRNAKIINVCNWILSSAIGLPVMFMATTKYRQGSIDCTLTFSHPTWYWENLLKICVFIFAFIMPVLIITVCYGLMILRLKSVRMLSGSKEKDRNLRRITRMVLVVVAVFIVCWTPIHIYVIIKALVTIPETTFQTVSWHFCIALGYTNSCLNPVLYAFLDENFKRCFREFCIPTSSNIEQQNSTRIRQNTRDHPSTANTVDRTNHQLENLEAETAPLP

| Compound | inhibition at 1 µM [%] | Ki [nM] | μ-Opioid receptor, % inhibition [1 μM] (1 µM) [%] | μ-Opioid receptor, % inhibition [1 μM] [%] | Ki (acylated amines (Table 20)) [nM] |
| --- | --- | --- | --- | --- | --- |
| CN(C)C(c1cccc(F)c1)C1CCC(CNC(=O)c2csc(-c3ccccc3)n2)CC1 (centres unmarked) [compound 365, 2-phenyl-thiazole-4-carboxylic acid {4-[dimethylamino-(3-fluoro-phenyl)-methyl]-cyclohexylmethyl}-amide] | 85 | 74 | – | – | – |
| Cc1cc(C(=O)NCC2CCC(C(c3cccs3)N(C)C)CC2)n(C(C)(C)C)n1 (centres unmarked) [compound 366, 2-tert-butyl-5-methyl-2H-pyrazole-3-carboxylic acid [4-(dimethylamino-thiophen-2-yl-methyl)-cyclohexylmethyl]-amide] | 85 | 56 | – | – | – |
| CC(C)S(=O)(=O)c1csc(C(=O)NCC2CCC(C(c3cccs3)N(C)C)CC2)c1Cl (centres unmarked) [compound 367, 3-chloro-4-(propane-2-sulfonyl)-thiophene-2-carboxylic acid [4-(dimethylamino-thiophen-2-yl-methyl)-cyclohexylmethyl]-amide] | 85 | 110 | – | – | – |
| COc1ccccc1C(=O)NCC1CCC(C(c2cccc(F)c2)N(C)C)CC1 (centres unmarked) [compound 368, N-{4-[dimethylamino-(3-fluoro-phenyl)-methyl]-cyclohexylmethyl}-2-methoxy-benzamide] | 84 | 34 | – | – | – |
| CN(C)C(c1ccc(Cl)cc1)C1CCC(CNC(=O)c2cccc(C(F)(F)F)c2)CC1 (centres unmarked) [compound 369, N-{4-[(4-chloro-phenyl)-dimethylamino-methyl]-cyclohexylmethyl}-3-trifluoromethyl-benzamide] | 84 | 68 | – | – | – |
| CN(C)C(c1ccc(F)cc1)C1CCC(CNC(=O)C2(c3ccc(Cl)cc3)CCCC2)CC1 (centres unmarked) [compound 370, 1-(4-chloro-phenyl)-cyclopentane-carboxylic acid {4-[dimethylamino-(4-fluoro-phenyl)-methyl]-cyclohexylmethyl}-amide] | 84 | 81 | – | – | – |
| CN(C)C(c1cccc(F)c1)C1CCC(CNC(=O)c2cc(Cl)cc(Cl)c2)CC1 (centres unmarked) [compound 371, 3,5-dichloro-N-{4-[dimethylamino-(3-fluoro-phenyl)-methyl]-cyclohexylmethyl}-benzamide] | 84 | 130 | – | – | – |
| Cc1oc(-c2ccccc2)cc1C(=O)NCC1CCC(C(c2cccc(F)c2)N(C)C)CC1 (centres unmarked) [compound 373, 2-methyl-5-phenyl-furan-3-carboxylic acid {4-[dimethylamino-(3-fluoro-phenyl)-methyl]-cyclohexylmethyl}-amide] | – | 61 | 84 | – | – |
| CN(C)C(c1ccccc1)C1CCC(CNC(=O)c2cccnc2Sc2ccc(Cl)cc2)CC1 (centres unmarked) [compound 374, 2-(4-chloro-phenylsulfanyl)-N-[4-(dimethylamino-phenyl-methyl)-cyclohexyl-methyl]-nicotinamide] | 84 | – | – | – | – |
| CCn1nc(C)c(Br)c1C(=O)NCC1CCC(C(c2cccs2)N(C)C)CC1 (centres unmarked) [compound 375, 4-bromo-2-ethyl-5-methyl-2H-pyrazole-3-carboxylic acid [4-(dimethylamino-thiophen-2-yl-methyl)-cyclohexylmethyl]-amide] | 84 | – | – | – | – |
| COc1c(C(=O)NCC2CCC(C(c3ccc(F)cc3)N(C)C)CC2)csc1Cl (centres unmarked) [compound 376, 5-chloro-4-methoxy-thiophene-3-carboxylic acid {4-[dimethylamino-(4-fluoro-phenyl)-methyl]-cyclohexylmethyl}-amide] | 84 | 40 | – | – | – |
| Cc1cc(C(=O)NCC2CCC(C(c3ccccc3)N(C)C)CC2)no1 (centres unmarked) [compound 379, 5-methyl-isoxazole-3-carboxylic acid [4-(dimethylamino-phenyl-methyl)-cyclohexylmethyl]-amide] | 83 | – | – | – | – |
| CN(C)C(CCc1ccccc1)C1CCC(CNC(=O)c2csc3ccccc23)CC1 (centres unmarked) [compound 380, benzo[b]thiophene-3-carboxylic acid [4-(1-dimethylamino-3-phenyl-propyl)-cyclohexylmethyl]-amide] | 83 | 95 | – | – | – |
| CSc1ncccc1C(=O)NCC1CCC(C(c2ccc(F)cc2)N(C)C)CC1 (centres unmarked) [compound 381, N-{4-[dimethylamino-(4-fluoro-phenyl)-methyl]-cyclohexylmethyl}-2-methyl-sulfanyl-nicotinamide] | – | 99 | – | 83 | – |
| Cc1ccc(Oc2ncccc2C(=O)NCC2CCC(C(c3ccc(Cl)cc3)N(C)C)CC2)cc1 (centres unmarked) [compound 382, N-{4-[(4-chloro-phenyl)-dimethylamino-methyl]-cyclohexylmethyl}-2-p-tolyloxy-nicotinamide] | 83 | – | – | – | – |
| Cc1ccccc1C(=O)NCC1CCC(C(c2cccc(F)c2)N(C)C)CC1 (centres unmarked) [compound 384, N-{4-[dimethylamino-(3-fluoro-phenyl)-methyl]-cyclohexylmethyl}-2-methyl-benzamide] | 82 | 38 | – | – | – |
| Cc1cc(C(=O)NCC2CCC(C(c3ccc(Cl)cc3)N(C)C)CC2)no1 (centres unmarked) [compound 385, 5-methyl-isoxazole-3-carboxylic acid {4-[(4-chloro-phenyl)-dimethylamino-methyl]-cyclohexylmethyl}-amide] | 82 | 68 | – | – | – |
| CN(C)C(c1ccccc1)C1CCC(CNC(=O)c2cncc(Br)c2)CC1 (centres unmarked) [compound 386, 5-bromo-N-[4-(dimethylamino-phenyl-methyl)-cyclohexylmethyl]-nicotinamide] | 82 | 100 | – | – | – |

| Compound | inhibition at 1 µM [%] | Ki [nM] | μ-Opioid receptor, % inhibition [1 μM] (1 µM) [%] | μ-Opioid receptor, % inhibition [1 μM] [%] | Ki (acylated amines (Table 20)) [nM] |
| --- | --- | --- | --- | --- | --- |
| CCC(C)C(=O)NCC1CCC(C(c2ccccc2)N(C)C)CC1 (centres unmarked) [compound 387, N-[4-(dimethylamino-phenyl-methyl)-cyclohexylmethyl]-2-methyl-butyramide] | 81 | 70 | – | – | – |
| CCSc1ncccc1C(=O)NCC1CCC(C(c2cccc(F)c2)N(C)C)CC1 (centres unmarked) [compound 388, N-{4-[dimethylamino-(3-fluoro-phenyl)-methyl]-cyclohexylmethyl}-2-ethylsulfanyl-nicotinamide] | 81 | 36 | – | – | – |
| CCn1nc(C)c(Br)c1C(=O)NCC1CCC(C(c2ccccc2)N(C)C)CC1 (centres unmarked) [compound 390, 4-bromo-2-ethyl-5-methyl-2H-pyrazole-3-carboxylic acid [4-(dimethylamino-phenyl-methyl)-cyclohexylmethyl]-amide] | 81 | – | – | – | – |
| CC(Oc1ccccc1)C(=O)NCC1CCC(C(c2ccc(Cl)cc2)N(C)C)CC1 (centres unmarked) [compound 391, N-{4-[(4-chloro-phenyl)-dimethylamino-methyl]-cyclohexylmethyl}-2-phenoxy-propionamide] | 81 | 26 | – | – | – |
| CN(C)C(c1ccccc1)C1CCC(CNC(=O)c2cc([N+](=O)[O-])cc([N+](=O)[O-])c2)CC1 (centres unmarked) [compound 392, N-[4-(dimethylamino-phenyl-methyl)-cyclohexylmethyl]-3,5-dinitro-benzamide] | 80 | – | – | – | 180 |
| COc1cccc(C(=O)NCC2CCC(C(c3ccc(Cl)cc3)N(C)C)CC2)c1 (centres unmarked) [compound 393, N-{4-[(4-chloro-phenyl)-dimethylamino-methyl]-cyclohexylmethyl}-3-methoxy-benzamide] | 80 | 44 | – | – | – |
| CN(C)C(c1ccc(Cl)cc1)C1CCC(CNC(=O)c2ccccc2Br)CC1 (centres unmarked) [compound 394, 2-bromo-N-{4-[(4-chloro-phenyl)-dimethylamino-methyl]-cyclohexylmethyl}-benzamide] | 79 | 48 | – | – | – |
| CN(C)C(c1ccc(Cl)cc1)C1CCC(CCNC(=O)c2ccccc2Br)CC1 (centres unmarked) [compound 395, 2-bromo-N-(2-{4-[(4-chloro-phenyl)-dimethylamino-methyl]-cyclohexyl}-ethyl)-benzamide] | 81 | 46 | – | – | – |
| CN(C)C(c1cccc(F)c1)C1CCC(CCNC(=O)c2ccccc2Br)CC1 (centres unmarked) [compound 396, 2-bromo-N-(2-{4-[dimethylamino-(3-fluoro-phenyl)-methyl]-cyclohexyl}-ethyl)-benzamide] | 97 | 12 | – | – | – |
| CN(C)C(c1ccc(Cl)cc1)C1CCC(CCNC(=O)c2cccc(Cl)c2)CC1 (centres unmarked) [compound 399, 3-chloro-N-(2-{4-[(4-chloro-phenyl)-dimethylamino-methyl]-cyclohexyl}-ethyl)-benzamide] | 80 | 110 | – | – | – |
| CN(C)C(c1ccccc1)C1CCC(CCNC(=O)c2ccccc2Cl)CC1 (centres unmarked) [compound 402, 2-chloro-N-{2-[4-(dimethylamino-phenyl-methyl)-cyclohexyl]-ethyl}-benzamide] | 96 | 7.9 | – | – | – |
| CN(C)C(c1ccc(Cl)cc1)C1CCC(CCNC(=O)c2ccccc2Cl)CC1 (centres unmarked) [compound 403, 2-chloro-N-(2-{4-[(4-chloro-phenyl)-dimethylamino-methyl]-cyclohexyl}-ethyl)-benzamide] | 81 | 74 | – | – | – |
| CN(C)C(c1cccc(F)c1)C1CCC(CCNC(=O)c2ccccc2Cl)CC1 (centres unmarked) [compound 404, 2-chloro-N-(2-{4-[dimethylamino-(3-fluoro-phenyl)-methyl]-cyclohexyl}-ethyl)-benzamide] | 97 | 19 | – | – | – |
| CN(C)C(c1ccccc1)C1CCC(CCNC(=O)c2ccc(Cl)cc2)CC1 (centres unmarked) [compound 405, 4-chloro-N-{2-[4-(dimethylamino-phenyl-methyl)-cyclohexyl]-ethyl}-benzamide] | 88 | 25 | – | – | – |
| CN(C)C(c1cccc(F)c1)C1CCC(CCNC(=O)c2ccc(Cl)cc2)CC1 (centres unmarked) [compound 406, 4-chloro-N-(2-{4-[dimethylamino-(3-fluoro-phenyl)-methyl]-cyclohexyl}-ethyl)-benzamide] | 81 | 40 | – | – | – |
| CN(C)C(c1ccccc1)C1CCC(CCNC(=O)c2ccc(F)cc2)CC1 (centres unmarked) [compound 407, N-{2-[4-(dimethylamino-phenyl-methyl)-cyclohexyl]-ethyl}-4-fluoro-benzamide] | 87 | 48 | – | – | – |
| CN(C)C(c1ccc(Cl)cc1)C1CCC(CCNC(=O)c2ccc(F)cc2)CC1 (centres unmarked) [compound 408, N-(2-{4-[(4-chloro-phenyl)-dimethylamino-methyl]-cyclohexyl}-ethyl)-4-fluoro-benzamide] | 82 | 12 | – | – | – |
